Experiment: Uptake of colonically absorbable forms of levodopa after intracolonic administration in rats
Assay type: in vivo
Conditions: whole blood, other: intracolonic (directly into the colon via cannula), rat, intraperitoneal carbidopa
Procedure: Sustained release oral dosage forms, which release drug slowly over periods of about 6 to about 24 hours, generally release a significant proportion of the dose within the colon. Thus, drugs suitable for use in such dosage forms should be colonically absorbed.
Rats were obtained commercially and were pre-cannulated in the both the ascending colon and the jugular vein. Animals were conscious at the time of the experiment. […] Carbidopa was administered as a solution in water or citrate buffer either orally, intraperitoneally, or intracolonically at a dose equivalent to 25 mg of carbidopa per kg. […] Blood was then further quenched with methanol/perchloric acid to prevent hydrolysis of the levodopa prodrug. Blood samples were analyzed as described below.
Methanol/perchloric acid (300 μL) was added to blank 1.5 mL Eppendorf tubes. Rat blood (300 μL) was collected into EDTA tubes containing 75 μL of sodium metabisulfite at different times and vortexed to mix. A fixed volume of blood (100 μL) was immediately added into the Eppendorf tube and vortexed to mix. […] Methanol/perchloric acid (300 μL of 50/50) was then added into each tube followed by the addition of 20 μL of p-chlorophenylalanine. The samples were vortexed and centrifuged at 14,000 rpm for 10 min. The supernatant was analyzed by LC/MS/MS. […]

bioavailability: 3%
Compound: N[C@@H](Cc1ccc(O)c(O)c1)C(=O)O [levodopa]

From patent US20080070984A1, “Compositions and Methods of Treating Schizophrenia” (priority 2006, published 2008)
